# Positions of bridges follow the written chain, without caps; N, C: chain ends. Non-standard residues stand in square brackets, D forms with d. Residues, ends and D or L forms follow the SMILES beside them. *: point of attachment. Decanoyl(3R-OH) = CCCCCCC[C@@H](O)CC(=O)*; dDab = NCC[C@@H](N)C(=O)O; Orn = NCCC[C@H](N)C(=O)O; Dab = NCC[C@H](N)C(=O)O
# Experiments:
# Neisseria gonorrhoeae = assay: MIC determination, Neisseria gonorrhoeae; type: cell-based; settings: for MIC N. gonorrhoeae FA19 ATCC BAA-1838: strain FA19 ATCC BAA-1838; for MIC N. gonorrhoeae F89: strain F89; for MIC N. gonorrhoeae FA1090 A25 ATCC 700825: strain FA1090 A25 ATCC 700825; for MIC N. gonorrhoeae H041: strain H041
# How it was run: (§1)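 Mid-log cultures grown in Mueller Hinton broth at 37° C were tested by 2-fold broth microdilution at 5×10^5 CFU/mL final. Compounds were dissolved in water and tested over a final range of 32 to 0.015 μg/mL.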
# [1] = test system: K. pneumoniae ATCC 700603, MDR; settings: ATCC 700603
# How it was run: as §1
# A. baumannii ATCC 19606 = settings: ATCC 19606
# How it was run: as §1
# K. pneumoniae ATCC 13883 = settings: ATCC 13883
# How it was run: as §1
# [2] = test system: S. aureus ATCC 25923, MSSA; settings: ATCC 25923
# How it was run: as §1
# [3] = test system: K. pneumoniae GN_102 PmxR; settings: GN 102 PmxR
# How it was run: as §1
# [4] = test system: P. aeruginosa GN_043, PmxR; settings: polymyxin-resistant
# How it was run: as §1
# [5] = test system: K. pneumoniae ATCC BAA-2146, NDM-1 pos; settings: ATCC BAA-2146
# How it was run: as §1
# [6] = test system: P. aeruginosa GN_105, PmxR; settings: GN 105, PmxR
# How it was run: as §1
# A. baumannii GN_093 PmxR = settings: GN 093 PmxR
# How it was run: as §1
# [7] = test system: K. pneumoniae GN_106, PmxR; settings: GN 106, PmxR
# How it was run: as §1
# P. aeruginosa ATCC 27853 = settings: ATCC 27853
# How it was run: as §1
# E. coli ATCC 25922 = settings: ATCC 25922
# How it was run: as §1
# [8] = In vitro nephrotoxicity, GGT release from primary human kidney cells; type: cell-based; settings: pH 7.4
# Source text: (§2) hPT cells were derived from whole human kidneys procured by the International Institute for the Advancement of Medicine (Edison, N.J., USA). All tissue was scored by a pathologist as normal (i.e., derived from non-cancerous, non-diseased tissue). Cell isolation procedures were based on those originally described by Todd et al. (1996) and modified (Cummings and Lash, 2000; Cummings et al., 2000) with use of sterile conditions (i.e., all instruments and glassware were autoclaved and all buffers were filtered through a 0.2-μm pore-size filter). Renal cortex and outer stripe were cut into slices, washed with sterile PBS, minced, and the pieces were placed in a trypsinization flask filled with 300 ml of sterile, filtered Hanks' buffer, containing 25 mM NaHCO3, 25 mM HEPES, pH 7.4, 0.5 mM EGTA, 0.2% (w/v) bovine serum albumin, 50 μg/ml gentamicin, 1.3 mg/mL collagenase, and 0.59 mg/ml CaCl2), which was filtered prior to use. Whole kidneys were perfused with Wisconsin medium and kept on ice until they arrived at the laboratory, which was usually within 24 h of removal from the donor.
# (§3) All buffers were continuously bubbled with 95% O2/5% CO2 and were maintained at 37° C. Minced cortical pieces from whole kidneys were subjected to collagenase digestion for 60 min, after which the supernatant was filtered through a 70-μm mesh filter to remove tissue fragments, centrifuged at 150×g for 7 min, and the pellet resuspended in Dulbecco's Modified Eagle's Medium: Ham's F12 Medium (DMEM/F12; 1/1). Approximately 5 to 7×10^6 cells were obtained per 1 g of human kidney cortical tissue.
# (§4) hPT cells were resuspended in 2 mL of DMEM/F12 and diluted to 500 mL with cell culture medium, which was serum-free and hormonally-defined. Composition of this supplemented medium was based on earlier work establishing optimal conditions for primary culture of rat PT cells (Lash et al., 1995). Basal medium was a 1:1 mixture of DMEM/F12. […] Cells were seeded in a volume of 0.5 ml at a density of 50-100 μg protein per cm^2 (0.5-1.0×10^6 cells/ml) on 24-well plates. Cultures were grown at 37° C. in a humidified incubator under an atmosphere of 95% air/5% CO2 at pH 7.4. Cultures were grown to approximately 80%-90% confluence (generally 5-6 days) prior to experiments. Cells were harvested by either scraping the flasks with a Teflon scraper or by brief incubation with Cellstripper (Cellgro, Herndon, Va., USA) (in Ca^2+- and Mg^2+-free Hanks' buffer).
# Release of gamm-glutanyltransferase was assessed according to Orlowski, M., Meister, A. 1963. γ-Glutamyl-p-nitroanilide: A new convenient substrate for determination and study of L- and D-γ-glutamyltranspeptidase activities (Biochim. Biophys. Acta 73: 679-681.)
# A 2.5 mM substrate Solution was prepared from 67 mg γ-glutamyl-p-nitroanilide+264 mg glycylglycine in 100 mL of 0.05 M Tris, pH 8.2 (50 mM Tris, pH 8.2: 605 mg Tris/HCl per 100 mL).
# For the assay in 96-well plates, 6-μL of sample and 0.3 mL substrate solution were added to each well. The absorbance was measured at 410 nm for the appearance of product, p-nitroanilide (molar extinction=8800 M^−1 cm^−1).
# [9] = In vitro nephrotoxicity, LDH release from primary human kidney cells; type: cell-based; settings: pH 7.4
# Source text: as §2, §3, §4
Compound,MIC N. gonorrhoeae FA19 ATCC BAA-1838 (Neisseria gonorrhoeae),"MIC K. pneumoniae ATCC 700603, MDR [1]",MIC A. baumannii ATCC 19606 (A. baumannii ATCC 19606),MIC K. pneumoniae ATCC 13883 (K. pneumoniae ATCC 13883),"MIC S. aureus ATCC 25923, MSSA [2]",MIC K. pneumoniae GN_102 PmxR [3],"MIC P. aeruginosa GN_043, PmxR [4]","MIC K. pneumoniae ATCC BAA-2146, NDM-1 pos [5]","MIC P. aeruginosa GN_105, PmxR [6]",MIC A. baumannii GN_093 PmxR (A. baumannii GN_093 PmxR),"MIC K. pneumoniae GN_106, PmxR [7]",MIC P. aeruginosa ATCC 27853 (P. aeruginosa ATCC 27853),MIC E. coli ATCC 25922 (E. coli ATCC 25922),CC50 [8],CC50 [9],MIC N. gonorrhoeae F89 (Neisseria gonorrhoeae),MIC N. gonorrhoeae FA1090 A25 ATCC 700825 (Neisseria gonorrhoeae),MIC N. gonorrhoeae H041 (Neisseria gonorrhoeae),other results
"CCCCCCC[C@@H](O)CC(=O)N[C@H](CCN)C(=O)N[C@H]1CCNC(=O)[C@H](CC(C)C)NC(=O)[C@H](CCCN)NC(=O)[C@H](CCN)NC(=O)[C@H](CC(C)C)NC(=O)[C@@H](Cc2ccccc2)NC(=O)[C@H](CCN)NC1=O [compound 988, 3(R)OH-nC9CO-D-Dab-cyc[L-Dab-L-Dab-D-Phe-L-Leu-L-Dab-L-Orn-L-Leu]] ({Decanoyl(3R-OH)}-[dDab][Dab][Dab][dF]L[Dab][Orn]L; lactam 2-C)",0.78 µg/mL,2 µg/mL,4 µg/mL,2 µg/mL,16 µg/mL,2 µg/mL,2 µg/mL,2 µg/mL,2 µg/mL,8 µg/mL,2 µg/mL,2 µg/mL,2 µg/mL,> 128 µg/mL,118 µg/mL,–,–,–,–
"CCCCCCC[C@@H](O)CC(=O)N[C@H](CCN)C(=O)N[C@H]1CCNC(=O)[C@H](CC(C)C)NC(=O)[C@H](CCN)NC(=O)[C@H](CCCN)NC(=O)[C@H](CC(C)C)NC(=O)[C@@H](Cc2ccccc2)NC(=O)[C@H](CCN)NC1=O [compound 991, 3(R)OH-nC9CO-D-Dab-cyc[L-Dab-L-Dab-D-Phe-L-Leu-L-Orn-L-Dab-L-Leu]] ({Decanoyl(3R-OH)}-[dDab][Dab][Dab][dF]L[Orn][Dab]L; lactam 2-C)",0.39 µg/mL,–,–,–,–,–,–,–,–,–,–,–,–,> 128 µg/mL,107 µg/mL,1.3 µg/mL,1.56 µg/mL,2.08 µg/mL,"MIC, K. pneumoniae ATCC 700603, MDR [1]: 4 µg/mL; MIC, A. baumannii ATCC 19606 (A. baumannii ATCC 19606): 4 µg/mL; MIC, K. pneumoniae ATCC 13883 (K. pneumoniae ATCC 13883): 4 µg/mL; MIC, S. Aureus ATCC 25923, MSSA [2]: 8 µg/mL; MIC, K. pneumoniae Cl Koprana 10065 0661:1, PmxR [3]: 1 µg/mL; MIC, P. aeruginosa FADDI-PA070, PmxR ([4]; Table 5): 2 µg/mL; MIC, K. pneumoniae ATCC BAA-2146, NDM-1 pos [5]: 4 µg/mL; MIC, P. aeruginosa PA9704, PmxR [6]: 1 µg/mL; MIC, A. baumannii Cl Ptyela 10073 4512:2, PmxR (A. baumannii GN_093 PmxR): 8 µg/mL; MIC, K. pneumoniae Cl 138-16347-20362, PmxR [7]: 2 µg/mL; MIC, P. aeruginosa ATCC 27853 (P. aeruginosa ATCC 27853): 2 µg/mL; MIC, E. coli ATCC 25922 (E. coli ATCC 25922): 4 µg/mL"
"CCCCCCC[C@@H](O)CC(=O)N[C@H](CCN)C(=O)N[C@H]1CCNC(=O)[C@H](Cc2c[nH]c3ccccc23)NC(=O)[C@H](CCN)NC(=O)[C@H](CCN)NC(=O)[C@H](CC(C)C)NC(=O)[C@@H](Cc2ccccc2)NC(=O)[C@H](CCN)NC1=O [compound 6509, 3(R)OH-nC9CO-D-Dab-cyc[L-Dab-L-Dab-D-Phe-L-Leu-L-Dab-L-Dab-L-Trp]] ({Decanoyl(3R-OH)}-[dDab][Dab][Dab][dF]L[Dab][Dab]W; lactam 2-C)",0.78 µg/mL,2 µg/mL,8 µg/mL,4 µg/mL,4 µg/mL,4 µg/mL,1 µg/mL,4 µg/mL,1 µg/mL,8 µg/mL,4 µg/mL,2 µg/mL,4 µg/mL,> 128 µg/mL,> 128 µg/mL,1.04 µg/mL,0.65 µg/mL,1.69 µg/mL,–

# Source: patent publication US11279733B2, “Peptide antibiotics” (priority 2017, dated 2022)
